Data set [1] addresses human α2C receptor (Homo sapiens (Human), UniProt P18825). The data set is described as follows: Antagonism against adrenoreceptor α2C (luminescence, recombinant CHO cell line, noradrenaline stimulation). It is filed as cell-based. The following applies: 20 nM noradrenaline. As for the experimental part: B-1a) Antagonism Against Adrenoreceptors
Antagonism against the adrenoreceptor α1A was tested using a recombinant human α1A receptor CHO cell line which additionally also recombinantly expresses mtAeq (mitochondrial aequorin). Antagonism against the adrenoreceptor α2A was tested using a recombinant human α2A-Gα16 receptor fusion protein CHO cell line (PerkinElmer Life Sciences) which additionally also recombinantly expresses mtAeq. Antagonism against the adrenoreceptor α2B was tested using a recombinant human α2B receptor CHO cell line (PerkinElmer Life Sciences) which additionally also recombinantly expresses mtAeq. Antagonism against the adrenoreceptor α2C was tested using a recombinant human α2C receptor CHO cell line which additionally also recombinantly expresses a chimaric G protein (Gαqi3) and mtOb (mitochondrial obelin).
The cells were cultivated at 37° C. and 5% CO2 in Dulbecco's modified Eagle's Medium/NUT mix F12 with L-glutamine which additionally contains 10% (v/v) inactivated foetal calf serum, 1 mM sodium pyruvate, 0.9 mM sodium bicarbonate, 50 U/ml penicillin, 50 μg/ml streptomycin, 2.5 μg/ml amphotericin B and 1 mg/ml Geneticin. The cells were passaged with enzyme-free Hank's-based cell dissociation buffer. All cell culture reagents used were from Invitrogen (Carlsbad, USA).
Luminescence measurements were carried out on white 384-well microtitre plates. 2000 cells/well were plated in a volume of 25 μl and cultivated for one day at 30° C. and 5% CO2 in cell culture medium with coelenterazine (α2A and α2B: 5 μg/ml; α1a/c and α2C: 2.5 μg/ml). Serial dilutions of the test substances (10 μl) were added to the cells. After 5 minutes, noradrenaline was added to the cells (35 μl; final concentrations: 20 nM (α1a/c, and α2C) or 200 nM (α2A and α2B)), and the emitted light was measured for 50 seconds using a CCD (charge-coupled device) camera (Hamamatsu Corporation, Shizuoka, Japan) in a light-tight box. The test substances were tested up to a maximum concentration of […] The IC50 values were calculated from the appropriate dose-response curves.

Data set [2] has as its system diabetic (ZDFfa/fa) and healthy rats (Wistar). Description: Assay of perfusion-enhancing substances (microcirculation), laser doppler probe at the paw. It is filed as in vivo, rat. The following applies: single oral dose; for MED skin temperature: minimum effective dose for significant increase of skin temperature (ttest); for MED microcirculation: minimum effective dose with significantly improved microcirculation vs placebo; for MED microcirculation / factor by which microcirculation is improved at MED compared to placebo: 30 min after administration; for factor by which microcirculation is improved at MED compared to placebo: at the MED. The text has this:
B-2e) Assay of Perfusion-Enhancing Substances (Microcirculation)
In diabetic (ZDFfa/fa) and healthy rats (Wistar), a laser doppler probe was fastened under anaesthesia conditions (isoflurane anaesthesia) at the sole of the paw for measuring cutaneous microcirculation. The test animals were once treated orally with the test substances. During the experiment, microperfusion and temperature of the lower extremities were documented continuously. Here, a temperature-sensitive laser doppler probe (Periflux, O2C) was fastened with adhesive to the paws of the animals, allowing the measurement of microperfusion and skin temperature. The microcirculation measurement values were measured on both paws 30 min after oral administration of the test substance. […] Also stated is the MED for the significant increase of skin temperature (ttest).
Microcirculation data for adrenoreceptor α2c antagonist of Example 8 and for the comparative substance ORM12741, an AR α2c antagonist from Orion, are shown in Table 2: […]

Data set [3] has as its system conscious female Wistar rats. Description: Radiotelemetric measurement of blood pressure and heart rate of conscious rats. Format: in vivo, rat. The source says: B-2l) Radiotelemetric Measurement of Blood Pressure and Heart Rate of Conscious Rats
A commercially available telemetry system from Data Sciences International DSI, USA, was employed for the measurements on conscious rats described below. The system consists of 3 main components: (1) implantable transmitters (Physiotel® telemetry transmitter), (2) receivers (Physiotel® receiver), which are linked via a multiplexer (DSI Data Exchange Matrix) to a (3) data acquisition computer. The telemetry system makes it possible to continuously record blood pressure, heart rate and body motion of conscious animals in their usual habitat.
The studies were conducted on adult female Wistar rats with a body weight of >200 g. After transmitter implantation, the experimental animals were housed singly in type III Makrolon® cages. They had free access to standard feed and water. The day/night rhythm in the test laboratory was set by changing the illumination of the room.
The telemetry transmitters used (PA-C40, DSI) were surgically implanted under aseptic conditions in the experimental animals at least 14 days before the first experimental use. […]
Each of the instrumented rats living in the system was assigned a separate receiving antenna (RPC-1 Receiver, DSI). […] The signals emitted were detected online by a data acquisition system (Dataquest™ A.R.T. for Windows, DSI) and processed accordingly.
In the standard procedure, the following were measured for 10-second periods in each case: (1) systolic blood pressure (SBP), (2) diastolic blood pressure (DBP), (3) mean arterial pressure (MAP) and (4) heart rate (HR) and (5) activity (ACT). These parameters were measured over 24 hours after administration.
The acquisition of measurements was repeated under computer control at 5-minute intervals. The source data obtained as absolute values were corrected in the diagram with the currently measured barometric pressure (Ambient Pressure Reference Monitor, APR-1, DSI). […]

The results in this text go back to patent US9624198B2, “Substituted piperidinyltetrahydroquinolines” (Bayer Pharma Aktiengesellschaft, priority 2013, dated 2017).

human α2C receptor, sequence (P18825 whole entry, the tested form may be a part): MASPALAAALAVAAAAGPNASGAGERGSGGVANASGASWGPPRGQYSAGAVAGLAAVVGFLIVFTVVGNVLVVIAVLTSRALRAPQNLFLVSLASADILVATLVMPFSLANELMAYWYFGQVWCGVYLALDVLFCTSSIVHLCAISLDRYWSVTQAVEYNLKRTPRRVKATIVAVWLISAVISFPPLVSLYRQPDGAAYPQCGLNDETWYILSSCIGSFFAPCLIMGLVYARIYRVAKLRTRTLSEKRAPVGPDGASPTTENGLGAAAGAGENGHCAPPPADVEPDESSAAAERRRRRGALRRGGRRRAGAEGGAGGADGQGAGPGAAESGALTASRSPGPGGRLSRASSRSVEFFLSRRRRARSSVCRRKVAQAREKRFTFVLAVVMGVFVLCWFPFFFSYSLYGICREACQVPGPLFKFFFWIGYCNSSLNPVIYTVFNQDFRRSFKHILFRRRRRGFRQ

For orientation: IC50 means the concentration at which inhibition is half-maximal. In the case of `COc1ccc2c(c1)CCN(C1CCN(C(=O)c3ccc(N4CCC(OC)C4)nc3)CC1)C2` (centres unmarked) [Example 9, [4-(6-Methoxy-3,4-dihydroisoquinolin-2(1H)-yl)piperidin-1-yl][6-(3-methoxypyrrolidin-1-yl)pyridin-3-yl]methanone], the IC50 in data set [1] came out at 11 nM.
Take `CC1CN(c2ccc(C(=O)N3CCC(N4CCc5ccccc5C4)CC3)cn2)CC(C)O1` (centres unmarked) [Example 12, [4-(3,4-Dihydroisoquinolin-2(1H)-yl)piperidin-1-yl][6-(2,6-dimethylmorpholin-4-yl)pyridin-3-yl]methanone]: in data set [1], the IC50 was 21 nM.
On the same count and under the same terms, to `CC1CN(c2ccc(C(=O)N3CCC(N4CCc5ccccc5C4)CC3)cn2)CC(C)O1` (centres unmarked) [Example 11, [4-(3,4-Dihydroisoquinolin-2(1H)-yl)piperidin-1-yl][6-(2,6-dimethylmorpholin-4-yl)pyridin-3-yl]methanone] belongs 11 nM.
Turning to `O=C(O)[C@H]1CCCN1c1ccc(C(=O)N2CCC(N3CCc4ccccc4C3)CC2)cn1` [Example 6, 1-(5-{[4-(3,4-Dihydroisoquinolin-2(1H)-yl)piperidin-1-yl]carbonyl}pyridin-2-yl)-D-proline], in data set [1], the IC50 was found to be 27 nM. Moreover, in data set [2], the MED skin temperature entry is given as “no effect”, the MED microcirculation result is “no effect” and the “factor by which microcirculation is improved at MED compared to placebo” value (“factor … compared to placebo” for short) is not above 1.3 ×.
With `COCCNc1ccc(C(=O)N2CCC(N3CCc4ccc(F)cc4C3)CC2)cn1` [Example 2, [4-(7-Fluoro-3,4-dihydroisoquinolin-2(1H)-yl)piperidin-1-yl]{6-[(2-methoxyethyl)amino]pyridin-3-yl}methanone], the half-inhibitory concentration (IC50) in data set [1] is 13 nM.
Turning to `COC[C@@]1(C)CCCN2CCc3c(oc4ccccc34)[C@@H]21` [ORM-12741, reference compound], the blood pressure result in data set [3] (10 mg/kg, oral) is “additional reduction in blood pressure”. Also, in data set [2], the MED skin temperature is reported as 0.01 mg/kg, the MED microcirculation was 0.1 mg/kg and the “factor … compared to placebo” value came out at 1.9 ×.
As to `O=C(c1ccc(N2CC3(COC3)C2)nc1)N1CCC(N2CCc3ccccc3C2)CC1` [Example 10, [4-(3,4-Dihydroisoquinolin-2(1H)-yl)piperidin-1-yl][6-(2-oxa-6-azaspiro[3.3]hept-6-yl)pyridin-3-yl]methanone], in data set [2], the MED skin temperature is 0.03 mg/kg, the MED microcirculation was found to be 0.03 mg/kg and the “factor … compared to placebo” value worked out at 2.1 ×.
Turning to `O=C(c1ccc(N2CC3(C2)CS(=O)(=O)C3)nc1)N1CCC(N2CCc3ccccc3C2)CC1` [Example 15, [4-(3,4-Dihydroisoquinolin-2(1H)-yl)piperidin-1-yl][6-(2,2-dioxido-2-thia-6-azaspiro[3.3]hept-6-yl)pyridin-3-yl]methanone], the IC50 in data set [1] is 53 nM.
`O=C(c1ccc(N2CCOC(C(F)(F)F)C2)nc1)N1CCC(N2CCc3ccccc3C2)CC1` (centres unmarked) [Example 14, [4-(3,4-Dihydroisoquinolin-2(1H)-yl)piperidin-1-yl]{6-[2-(trifluoromethyl)morpholin-4-yl]pyridin-3-yl}methanone]: the IC50 in data set [1] was 23 nM.
On to `COC[C@H]1CCCN1c1ccc(C(=O)N2CCC(N3CCc4ccccc4C3)CC2)cn1` [Example 5, [4-(3,4-Dihydroisoquinolin-2(1H)-yl)piperidin-1-yl]{6-[(2R)-2-(methoxymethyl)pyrrolidin-1-yl]pyridin-3-yl}methanone], for which, in data set [1], the IC50 is 65 nM.
As for `O=C(c1ccc(N2CCS(=O)(=O)CC2)nc1)N1CCC(N2CCc3ccccc3C2)CC1` [Example 4, [4-(3,4-Dihydroisoquinolin-2(1H)-yl)piperidin-1-yl][6-(1,1-dioxidothiomorpholin-4-yl)pyridin-3-yl]methanone], the “haemodynamic effects (blood pressure, heart rate)” value in data set [3] (conscious rats, oral administration, 24 hours telemetry) is reported as “no haemodynamic effects”. Also, the heart rate result in data set [3] (oral dose of 3 and 10 mg/kg) is “slight transient increase in the heart rate”. Also, the IC50 in data set [1] was 24 nM. Further, in data set [2], the MED skin temperature turned out to be 0.1 mg/kg, the MED microcirculation is given as 0.1 mg/kg and the “factor … compared to placebo” value is recorded as 2.4 ×.
Turning to `CC[C@@H](CO)Nc1ccc(C(=O)N2CCC(N3CCc4ccccc4C3)CC2)cn1` [Example 7, [4-(3,4-Dihydroisoquinolin-2(1H)-yl)piperidin-1-yl](6-{[(2S)-1-hydroxybutan-2-yl]amino}pyridin-3-yl)methanone], the IC50 in data set [1] was found to be 21 nM.
For `COCCNc1ccc(C(=O)N2CCC(N3CCc4ccccc4C3)CC2)cn1` [Example 1, [4-(3,4-Dihydroisoquinolin-2-(1H)-yl)piperidin-1-yl]{6-[(2-methoxyethyl)amino]pyridin-3-yl}-methanone], the IC50 in data set [1] worked out at 22 nM. In addition, in data set [2], the MED skin temperature was determined as 1 mg/kg, the MED microcirculation was 1 mg/kg and the “factor … compared to placebo” value turned out to be 1.8 ×.
For `COC1CCN(c2ccc(C(=O)N3CCC(N4CCc5cc(F)ccc5C4)CC3)cn2)C1` (centres unmarked) [Example 8, [4-(6-Fluoro-3,4-dihydroisoquinolin-2(1H)-yl)piperidin-1-yl][6-(3-methoxypyrrolidin-1-yl)pyridin-3-yl]methanone], in data set [1], the IC50 was found to be 58 nM.
Consider `CC1(C)CN(c2ccc(C(=O)N3CCC(N4CCc5ccccc5C4)CC3)cn2)CCO1` [Example 13, [4-(3,4-Dihydroisoquinolin-2(1H)-yl)piperidin-1-yl][6-(2,2-dimethylmorpholin-4-yl)pyridin-3-yl]methanone], for which the IC50 in data set [1] turned out to be 53 nM.
For `O=C(c1ccc(N2CCOCC2)nc1)N1CCC(N2CCc3ccccc3C2)CC1` [Example 3, [4-(3,4-Dihydroisoquinolin-2(1H)-yl)piperidin-1-yl][6-(morpholin-4-yl)pyridin-3-yl]methanone], in data set [1], the IC50 was determined as 9 nM.
